Results reported in publication PMC4839570, “Novel Anthra[1,2-c][1,2,5]Thiadiazole-6,11-Diones as Promising Anticancer Lead Compounds: Biological Evaluation, Characterization & Molecular Targets Determination” (PLoS ONE, 2016).
Like-named read-outs stand apart in the source and are kept apart here.

Legend:
[1] = system: U251; assay: JFCR-39 cytotoxicity screen; format: cell-based
[2] = system: NCI-H23; assay: JFCR-39 cytotoxicity screen; format: cell-based
[3] = system: NCI 60 human cancer cell lines; assay: NCI-60 screen, means, ranges and selectivity over panels; format: cell-based; conditions: for GI50: Homo sapiens
Description: Both NSC745885 and NSC757963 satisfied the pre-determined threshold inhibition criteria of the NCI-60 One-Dose Screening, so they were tested against the panels of 60 cancer cell lines of NCI (NCI-60) and 39 cancer cell lines of JFCR (JFCR-39), each cell line was tested at five small doses of our compounds. Results are expressed as the 50% growth inhibition concentration (GI50), the 50% lethal concentration (LC50) and the total growth inhibition (TGI), compared to the values of untreated control cells.
To characterize the selectivity of NSC745885 and NSC757963 further among the different types of cancer, we determined their selectivity ratios towards each cell line subpanel used in the cytotoxicity experiments. […] The promising activity of this compound is evident from the small mean GI50 values. […] The strongest activity was towards the leukemia subpanel and the least one was towards the colon cancer subpanel. […] The strongest activity was towards the melanoma subpanel and the least one was towards the colon cancer subpanel.
All cell lines were published before.

[4] = system: SW-620; assay: NCI-60 cytotoxicity screen; format: cell-based
[5] = system: MDA-MB-231; assay: JFCR-39 cytotoxicity screen; format: cell-based
[6] = system: OVCAR-4; assay: NCI-60 cytotoxicity screen; format: cell-based
[7] = system: NCI-H522; assay: JFCR-39 cytotoxicity screen; format: cell-based
[8] = system: UACC-62; assay: NCI-60 cytotoxicity screen; format: cell-based
[9] = system: MKN28; assay: JFCR-39 cytotoxicity screen; format: cell-based
[10] = system: ACHN; assay: NCI-60 cytotoxicity screen; format: cell-based
[11] = system: DU-145; assay: JFCR-39 cytotoxicity screen; format: cell-based
[12] = system: SK-MEL-5; assay: NCI-60 cytotoxicity screen; format: cell-based
[13] = system: NF-κB p65 subunit translocation in OVCAR-3 cells; assay: NF-κB inhibition by immunocytochemical fluorescent staining; format: cell-based, human; conditions: 5 μM
Description: Inhibition of NF-κB was detected according to Ataie-Kachoie et al.. Briefly, each group of tested cells were seeded on coverslips treated with HCl and ethanol, and autoclaved prior to use. Immunostaining of the p65 subunit of NF-κB was done by permeabilizing the cells with Triton […], then by treating the cells with anti-NF-κB p65 rabbit monoclonal primary antibody [E379] Abcam # ab32536, followed by Alexa Fluor® 488 Donkey anti-rabbit IgG secondary antibody Biolegend # 406416. Nuclei of cells were stained with 4',6-diamidino-2-phenylindole (DAPI). Images were acquired using fluorescence microscope. Tested cells were divided into five groups which are no treatment control, no primary antibody control, PDTC (50 μM) treated control, NSC745885 (5 μM) and NSC757963 (5 μM) treated controls.

[14] = system: OVCAR-5; assay: JFCR-39 cytotoxicity screen; format: cell-based
[15] = system: COLO 205; assay: NCI-60 cytotoxicity screen; format: cell-based
[16] = system: OVCAR-3; assay: cells; conditions: Homo sapiens, OVCAR-3, read-out: mean log10 of the GI50 values (converted)
[17] = system: SK-MEL-2; assay: NCI-60 cytotoxicity screen; format: cell-based
[18] = system: OVCAR-5; assay: NCI-60 cytotoxicity screen; format: cell-based
[19] = system: RXF 393; assay: NCI-60 cytotoxicity screen; format: cell-based
[20] = system: TK-10; assay: NCI-60 cytotoxicity screen; format: cell-based
[21] = Homo sapiens, read-out: LC50 (the source's name)
[22] = Homo sapiens, Fig 7, read-out: mean log10 of the GI50 values (converted)
[23] = Homo sapiens, five-dose, read-out: GI50
[24] = Homo sapiens, five-dose, read-out: LC50 (the source's name)
[25] = Homo sapiens, single dose 10 μM, read-out: growth inhibition

`O=C1c2ccccc2C(=O)c2c1ccc1nsnc21` [NSC745885, anthra[1,2-c][1,2,5]thiadiazole-6,11-dione] was tested, and the TGI [1] was 3.1 µM, the GI50 ([1]; Homo sapiens, U-251) was 1.6 µM and the CC50 ([1]; Homo sapiens, U-251, read-out: LC50 (the source's name)) was 5.8 µM. It also gave a TGI [2] of 2.9 µM, a GI50 ([2]; Homo sapiens) of 1.1 µM and a CC50 [2, 21] of 8 µM. For the same compound, the “selectivity ratios of the NCI subpanels other than leukemia” value [3] was “less than 3”, the GI50 ([3]; Fig 7, read-out: MG-MID of mean log10 GI50 (converted)) was 2.4 µM and the GI50 ([3]; NCI Breast Cancer, read-out: Mean GI50 of subpanel) was 1.54 µM. For the same compound, the GI50 ([3]; NCI CNS Cancer, read-out: Mean GI50 of subpanel) was 1.91 µM, the GI50 ([3]; NCI Colon Cancer, read-out: Mean GI50 of subpanel) was 7.23 µM and the GI50 ([3]; NCI Leukemia, read-out: Mean GI50 of subpanel) was 0.966 µM. For the same compound, the GI50 ([3]; NCI Melanoma, read-out: Mean GI50 of subpanel) was 1.65 µM, the GI50 ([3]; NCI Non-Small Cell Lung Cancer, read-out: Mean GI50 of subpanel) was 5.37 µM and the GI50 ([3]; NCI Ovarian Cancer, read-out: Mean GI50 of subpanel) was 2.24 µM. The GI50 ([3]; NCI Prostate Cancer, read-out: Mean GI50 of subpanel) was 2.45 µM, the GI50 ([3]; NCI Renal Cancer, read-out: Mean GI50 of subpanel) was 3.65 µM and the GI50 ([3]; all NCI subpanels, read-out: mean GI50 values of the NCI 60 subpanels, range) was 0.97 to 7.2 µM. The GI50 ([3]; equivalent to MID, read-out: Mean GI50 of all NCI-60 cell line panels) was 3.23 µM, the GI50 ([3]; five-dose, read-out: NCI-60 GI50 values, range over cell lines) was 0.16 to 17.4 µM and the Selectivity ratio ([3]; NCI Breast Cancer) was 2.1. It also gave a Selectivity ratio ([3]; NCI CNS Cancer) of 1.69, a Selectivity ratio ([3]; NCI Colon Cancer) of 0.45 and a Selectivity ratio ([3]; NCI Leukemia) of 3.35. For the same compound, the Selectivity ratio ([3]; NCI Melanoma) was 1.96, the Selectivity ratio ([3]; NCI Non-Small Cell Lung Cancer) was 0.6 and the Selectivity ratio ([3]; NCI Ovarian Cancer) was 1.44. It also gave a Selectivity ratio ([3]; NCI Prostate Cancer) of 1.32, a Selectivity ratio ([3]; NCI Renal Cancer) of 0.89 and a GI50 [4, 22] of 3.89 µM. It also gave a GI50 [4, 23] of 1.79 µM, a CC50 [4, 24] of 6.84 µM and a TGI ([4]; five-dose) of 3.50 µM. For the same compound, the TGI [5] was 5.5 µM, the GI50 ([5]; Homo sapiens) was 1.4 µM and the CC50 [5, 21] was 63 µM. The GI50 [6, 22] was 0.575 µM, the GI50 [6, 23] was 0.65 µM and the CC50 [6, 24] was 5.57 µM. It also gave an inhibition at 10 µM [6, 25] of 94.4%, a TGI ([6]; five-dose) of 2.17 µM and a TGI [7] of 3.0 µM. The GI50 ([7]; Homo sapiens) was 1.3 µM, the CC50 [7, 21] was 6.7 µM and the GI50 [8, 22] was 1.82 µM. It also gave a GI50 [8, 23] of 1.45 µM, a CC50 [8, 24] of 5.79 µM and a TGI ([8]; five-dose) of 2.90 µM. It also gave a TGI [9] of 4.4 µM, a GI50 ([9]; Homo sapiens, MKN-28) of 1.8 µM and a CC50 ([9]; Homo sapiens, MKN-28, read-out: LC50 (the source's name)) of 13 µM. For the same compound, the GI50 [10, 22] was 1.58 µM, the GI50 [10, 23] was 1.46 µM and the CC50 [10, 24] was 5.27 µM. The inhibition at 10 µM [10, 25] was 94.3%, the TGI ([10]; five-dose) was 2.77 µM and the TGI [11] was 3.5 µM. The GI50 ([11]; Homo sapiens) was 2 µM, the CC50 [11, 21] was 6.1 µM and the GI50 [12, 22] was 1.35 µM. It also gave a GI50 [12, 23] of 1.58 µM, a CC50 [12, 24] of 5.41 µM and a TGI ([12]; five-dose) of 2.92 µM. For the same compound, the “nuclear translocation of the NF-κB p65 subunit” value [13] was “significantly capable of preventing the nuclear translocation of the NF-κB p65 subunit”, the TGI [14] was 3.4 µM and the GI50 ([14]; Homo sapiens) was 1.9 µM. For the same compound, the CC50 [14, 21] was 6 µM, the GI50 ([15]; Homo sapiens, COLO205, Fig 7, read-out: mean log10 of the GI50 values (converted)) was 5.13 µM and the GI50 [15, 23] was 13.4 µM. For the same compound, the CC50 [15, 24] was 62.4 µM, the TGI ([15]; five-dose) was 28.9 µM and the GI50 [16] was 1.35 µM. The GI50 [17, 22] was 2 µM, the GI50 [17, 23] was 1.68 µM and the CC50 [17, 24] was 22.5 µM. For the same compound, the TGI ([17]; five-dose) was 4.22 µM, the GI50 [18, 22] was 2.04 µM and the GI50 [18, 23] was 1.91 µM. The CC50 [18, 24] was 8.84 µM, the TGI ([18]; five-dose) was 4.11 µM and the GI50 ([19]; Homo sapiens, RXF393, Fig 7, read-out: mean log10 of the GI50 values (converted)) was 1.74 µM. The GI50 [19, 23] was 1.75 µM, the CC50 [19, 24] was 14.6 µM and the TGI ([19]; five-dose) was 4.40 µM. The GI50 [20, 22] was 10 µM, the GI50 [20, 23] was 2.85 µM and the CC50 [20, 24] was 50.4 µM. The TGI ([20]; five-dose) was 10.9 µM.
